In patent US9340547B2, “Pyrrolotriazinone derivatives as inhibitors P13K” (Almirall, S.A., priority 2011, dated 2016) one finds IC50 data, which are given here for 26 compounds.

Each structure is given as a SMILES string. pIC50: −log10 of the molar value.

T1 sequence (O00329 whole entry): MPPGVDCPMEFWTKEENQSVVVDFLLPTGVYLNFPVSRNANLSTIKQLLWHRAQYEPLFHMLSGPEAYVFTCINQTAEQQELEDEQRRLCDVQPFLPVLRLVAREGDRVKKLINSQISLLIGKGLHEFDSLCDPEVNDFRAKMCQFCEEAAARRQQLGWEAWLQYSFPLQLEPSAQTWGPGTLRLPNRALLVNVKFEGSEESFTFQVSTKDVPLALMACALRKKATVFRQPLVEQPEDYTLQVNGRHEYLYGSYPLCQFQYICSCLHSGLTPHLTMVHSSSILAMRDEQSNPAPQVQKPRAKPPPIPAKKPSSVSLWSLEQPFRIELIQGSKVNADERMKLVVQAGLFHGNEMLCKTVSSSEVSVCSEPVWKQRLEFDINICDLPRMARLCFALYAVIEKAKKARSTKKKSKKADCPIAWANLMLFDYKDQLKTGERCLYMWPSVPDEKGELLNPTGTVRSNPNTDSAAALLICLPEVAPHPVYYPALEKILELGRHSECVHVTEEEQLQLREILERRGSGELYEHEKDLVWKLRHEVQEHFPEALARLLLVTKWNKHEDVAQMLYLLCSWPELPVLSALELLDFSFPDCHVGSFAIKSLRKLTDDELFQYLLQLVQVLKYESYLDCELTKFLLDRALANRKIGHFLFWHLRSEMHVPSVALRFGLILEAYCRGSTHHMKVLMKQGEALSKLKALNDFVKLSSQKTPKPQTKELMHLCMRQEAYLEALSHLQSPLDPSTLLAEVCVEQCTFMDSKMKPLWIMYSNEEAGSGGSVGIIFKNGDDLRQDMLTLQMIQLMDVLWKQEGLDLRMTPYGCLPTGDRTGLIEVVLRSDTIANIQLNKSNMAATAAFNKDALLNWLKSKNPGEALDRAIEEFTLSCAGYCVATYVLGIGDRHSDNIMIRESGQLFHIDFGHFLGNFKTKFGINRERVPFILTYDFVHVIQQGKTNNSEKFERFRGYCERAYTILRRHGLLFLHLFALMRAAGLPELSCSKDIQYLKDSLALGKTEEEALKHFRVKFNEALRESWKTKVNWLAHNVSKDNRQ
T1 sequence (P27986 whole entry partner): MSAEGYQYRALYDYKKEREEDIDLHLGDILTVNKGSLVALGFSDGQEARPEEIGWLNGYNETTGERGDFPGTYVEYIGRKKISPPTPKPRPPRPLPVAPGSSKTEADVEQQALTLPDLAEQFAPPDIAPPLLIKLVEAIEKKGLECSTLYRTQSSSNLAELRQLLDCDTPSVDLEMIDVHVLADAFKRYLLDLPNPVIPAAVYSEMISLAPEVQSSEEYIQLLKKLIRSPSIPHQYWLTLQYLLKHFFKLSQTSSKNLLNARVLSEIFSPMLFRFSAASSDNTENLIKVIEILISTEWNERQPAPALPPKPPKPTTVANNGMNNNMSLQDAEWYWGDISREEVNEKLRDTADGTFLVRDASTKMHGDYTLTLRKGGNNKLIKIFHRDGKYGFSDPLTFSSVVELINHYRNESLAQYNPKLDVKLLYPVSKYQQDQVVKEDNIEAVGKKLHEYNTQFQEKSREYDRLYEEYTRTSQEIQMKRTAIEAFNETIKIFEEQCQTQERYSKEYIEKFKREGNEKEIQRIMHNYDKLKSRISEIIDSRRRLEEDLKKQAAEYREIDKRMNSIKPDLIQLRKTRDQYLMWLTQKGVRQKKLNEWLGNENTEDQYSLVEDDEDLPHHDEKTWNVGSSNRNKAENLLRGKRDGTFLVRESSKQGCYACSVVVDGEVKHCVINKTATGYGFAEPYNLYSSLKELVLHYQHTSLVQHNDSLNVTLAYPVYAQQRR

One assay addresses T1, PI3Kδ (PI3 Kd) (Homo sapiens, UniProt O00329).
T1 construct: purchased Millipore
Kind of assay: PI3K HTRF enzymatic inhibition assay (cell-free), PI3Kd. The assay is classed as biochemical.
Settings: not given
The procedure:
PI3K α, β, δ and γ Enzymatic Inhibition Assays
Compounds were screened for their ability to inhibit PI3Kα (PI3Kα), PI3Kβ (PI3 Kb), PI3Kδ (PI3 Kd) and PI3Kγ (PI3 Kg) using a cell-free based PI3K HTRF™ assay (Millipore, ref. #33-017) All reagents to perform the reactions were prepared according to the manufacturer protocol. All PI3K enzymes were recombinant and were purchased at Millipore.
These concentrations were final in the assay. • 3) A reservoir plate containing Adenosine TriPhosphate (ATP) diluted in the Millipore kit buffer was prepared for each isoform. […] Incubation was done for 8 minutes (for all four isoforms) then the reaction was stopped by addition of the Stop solution. The Detection solution was added. These solutions were prepared previously according to the kit specifications.
On to `C[C@H](Nc1ncnc(N)c1C#N)c1nn2ccc(C#N)c2c(=O)n1C1CCCOC1` (single isomer, unassigned) [Example 129], for which the negative-log IC50 (pIC50) (in general, the negative decadic logarithm of the IC50, by convention in mol/L) is 7.42.
Compound `C[C@H](Nc1ncnc(N)c1C#N)c1nn2ccc(C(F)(F)F)c2c(=O)n1C1CCCOC1` (single isomer, unassigned) [Example 133] showed a pIC50 of 7.96.
Still for that read-out and setting: for `Cc1ccccc1-n1c(Cn2cnc3c(N)ncnc32)nn2ccc(Cl)c2c1=O` [Example 1, 2-((6-Amino-9H-purin-9-yl)methyl)-5-chloro-3-o-tolylpyrrolo[1,2-f][1,2,4]triazin-4(3H)-one] the value was 6.92; for `CC[C@H](Nc1ncnc2[nH]cnc12)c1nn2cccc2c(=O)n1-c1ccccc1` [Example 15, (S)-2-(1-(9H-Purin-6-ylamino)propyl)-3-phenylpyrrolo[1,2-f][1,2,4]triazin-4(3H)-one], 7.74; for `CC[C@H](Nc1nc(N)nc2[nH]cnc12)c1nn2cccc2c(=O)n1-c1ccccc1` [Example 17, (S)-2-(1-(2-Amino-9H-purin-6-ylamino)propyl)-3-phenylpyrrolo[1,2-f][1,2,4]triazin-4(3H)-one], 8.05.
Same read-out and setting: to `C[C@H](Nc1ncnc2[nH]cnc12)c1nn2cccc2c(=O)n1-c1ccccc1` [Example 20, (S)-2-(1-(9H-Purin-6-ylamino)ethyl)-3-phenylpyrrolo[1,2-f][1,2,4]triazin-4(3H)-one] belongs 7.96; to `C[C@H](Nc1nc(N)nc2[nH]cnc12)c1nn2cccc2c(=O)n1-c1ccccc1` [Example 21, (S)-2-(1-(2-Amino-9H-purin-6-ylamino)ethyl)-3-phenylpyrrolo[1,2-f][1,2,4]triazin-4(3H)-one], 8.30; to `Cc1ccccc1-n1c(Cn2cnc3c(N)ncnc32)nn2ccc(C(F)(F)F)c2c1=O` [Example 25, 2-((6-Amino-9H-purin-9-yl)methyl)-3-o-tolyl-5-(trifluoromethyl)pyrrolo[1,2-f][1,2,4]triazin-4(3H)-one], 6.46.
Still for that read-out and setting: for `Nc1ncnc2c1ncn2Cc1nn2ccc(Cl)c2c(=O)n1Cc1ccccc1` [Example 29] the value was 6.42; for `Cc1ccccc1-n1c(Cn2cnc3c(N)ncnc32)nn2ccnc2c1=O` [Example 31, 2-((6-amino-9H-purin-9-yl)methyl)-3-o-tolylimidazo[1,2-f][1,2,4]triazin-4(3H)-one], 5.18.
Regarding `C[C@H](Nc1ncnc2[nH]cnc12)c1nn2cccc2c(=O)n1-c1cc(F)cc(F)c1` [Example 37, (S)-2-(1-(9H-Purin-6-ylamino)ethyl)-3-(3,5-difluorophenyl)pyrrolo[1,2-f][1,2,4]triazin-4(3H)-one], the pIC50 was 7.82.
On the same count and under the same terms, to `C[C@H](Nc1ncnc(N)c1C#N)c1nn2cccc2c(=O)n1-c1ccccn1` [Example 43, (S)-4-Amino-6-(1-(4-oxo-3-(pyridin-2-yl)-3,4-dihydropyrrolo[1,2-f][1,2,4]triazin-2-yl)ethylamino)pyrimidine-5-carbonitrile] belongs 7.96.
On the same count and under the same terms, for `O=c1c2cccn2nc([C@@H]2CCCN2c2ncnc3[nH]cnc23)n1-c1ccccc1` [Example 44, (S)-2-(1-(9H-Purin-6-yl)pyrrolidin-2-yl)-3-phenylpyrrolo[1,2-f][1,2,4]triazin-4(3H)-one] the value was 7.54; for `C[C@H](Nc1ncnc(N)c1C#N)c1nn2ccc(C(F)F)c2c(=O)n1-c1ccccc1` [Example 47, (S)-4-Amino-6-(1-(5-(difluoromethyl)-4-oxo-3-phenyl-3,4-dihydropyrrolo[1,2-f][1,2,4]triazin-2-yl)ethylamino)pyrimidine-5-carbonitrile], 9.00.
On to `C[C@H](Nc1ncnc(N)c1C#N)c1nn2ccnc2c(=O)n1-c1ccccc1` [Example 50, (S)-4-amino-6-(1-(4-oxo-3-phenyl-3,4-dihydroimidazo[1,2-f][1,2,4]triazin-2-yl)ethylamino)pyrimidine-5-carbonitrile], for which the pIC50 was 7.24.
Turning to `C[C@H](Nc1ccnc2ccnn12)c1nn2cccc2c(=O)n1-c1ccccc1` [Example 54, (S)-3-Phenyl-2-(1-(pyrazolo[1,5-a]pyrimidin-7-ylamino)ethyl)pyrrolo[1,2-f][1,2,4]triazin-4(3H)-one], the negative logarithm of the IC50 (pIC50) is 7.22.
For the compound `Nc1nc(N2CCC[C@H]2c2nn3cccc3c(=O)n2-c2ccccc2)c2nc[nH]c2n1` [Example 56, (S)-2-(1-(2-Amino-9H-purin-6-yl)pyrrolidin-2-yl)-3-phenyl pyrrolo[1,2-f][1,2,4]triazin-4(3H)-one], the pIC50 is 7.82.
`C[C@H](Nc1ncnc2[nH]cnc12)c1nn2ccc(C#N)c2c(=O)n1-c1ccccc1` [Example 61, (S)-2-(1-(9H-Purin-6-ylamino)ethyl)-4-oxo-3-phenyl-3,4-dihydropyrrolo[1,2-f][1,2,4]triazine-5-carbonitrile] showed a pIC50 of 8.22.
As to `O=c1c2cccn2nc([C@H](CO)Nc2ncnc3[nH]cnc23)n1-c1ccccc1` [Example 62, (R)-2-(1-(9H-Purin-6-ylamino)-2-hydroxyethyl)-3-phenylpyrrolo[1,2-f][1,2,4]triazin-4(3H)-one], the pIC50 was 7.14.
Same read-out and setting: for `C[C@H](Nc1nc(N)nc2[nH]cnc12)c1nn2ccnc2c(=O)n1-c1ccccc1` [Example 64, (S)-2-(1-(2-Amino-9H-purin-6-ylamino)ethyl)-3-phenylimidazo[1,2-f][1,2,4]triazin-4(3H)-one] the value was 7.16.
As for `Cc1ccn2nc([C@H](C)Nc3ncnc4[nH]cnc34)n(-c3ccccc3)c(=O)c12` [Example 68, (S)-2-(1-(9H-Purin-6-ylamino)ethyl)-5-methyl-3-phenyl pyrrolo[1,2-f][1,2,4]triazin-4(3H)-one], the pIC50 is 9.00.
The same measure, in the same setting: to `Cc1ccc2c(=O)n(-c3ccccc3)c([C@H](C)Nc3ncnc(N)c3C#N)nn12` [Example 71, (S)-4-Amino-6-(1-(7-methyl-4-oxo-3-phenyl-3,4-dihydropyrrolo[1,2-f][1,2,4]triazin-2-yl)ethylamino)pyrimidine-5-carbonitrile] belongs 8.05.
On the same count and under the same terms, to `N#Cc1c(N)ncnc1N1CC(F)(F)C[C@H]1c1nn2cccc2c(=O)n1-c1ccccc1` [Example 73, (S)-4-Amino-6-(4,4-difluoro-2-(4-oxo-3-phenyl-3,4-dihydropyrrolo[1,2-f][1,2,4]triazin-2-yl)pyrrolidin-1-yl)pyrimidine-5-carbonitrile] belongs 7.51.
On the same count and under the same terms, for `C[C@H](Nc1ncnc(N)c1C#N)c1nn2cc(F)cc2c(=O)n1-c1ccccc1` [Example 75, (S)-4-Amino-6-(1-(6-fluoro-4-oxo-3-phenyl-3,4-dihydropyrrolo[1,2-f][1,2,4]triazin-2-yl)ethylamino)pyrimidine-5-carbonitrile] the value was 7.77.
The compound `C[C@H](Nc1ncnc2[nH]cc(F)c12)c1nn2cccc2c(=O)n1-c1ccccc1` [Example 81, (S)-2-(1-(5-Fluoro-7H-pyrrolo[2,3-d]pyrimidin-4-ylamino)ethyl)-3-phenylpyrrolo[1,2-f][1,2,4]triazin-4(3H)-one] had a negative-log IC50 (pIC50) of 8.05.

The assay is the same for the next values; noted with them: recombinant PI3 Kd 0.60 nM, PIP2 2 μM, ATP 20 μM, 8 min incubation.
`Cc1ccccc1-n1c(CSc2ncnc3[nH]cnc23)nn2ccc(C)c2c1=O` [Example 11, 2-((9H-Purin-6-ylthio)methyl)-5-methyl-3-o-tolylpyrrolo[1,2-f][1,2,4]triazin-4(3H)-one]: the negative-log IC50 (pIC50) is 6.92.
